Reference: US20240101542A1, “ERAP INHIBITORS” (UNIVERSITE DE LILLE, priority 2020, published 2024)

What was measured:
ERAP2 = ERAP2 (Homo sapiens (Human), UniProt Q6P179); test: In vitro ERAP activity assay, ERAP2 with R-AMC substrate; format: biochemical; design: IC50 on ERAP2 using R-AMC as substrate: scale not given here; settings: for IC50 / IC50 on ERAP2 using R-AMC as substrate: R-AMC as substrate; for IC50: read-out: IC50 on ERAP2 using R-AMC as substrate
Method: (§1) The enzymatic activity of ERAP1 or 2 was assayed using L-AMC (L-Leucine-7-amido-4-methylcoumarin hydrochloride) or R-AMC (L-Arginine-7-amido-4-methylcoumarin hydrochloride) respectively. Hepes at 50 mM with 100 mM NaCl at pH 7 was used as buffer. Briefly, 60 nL of test compounds were added in 384-wells plates (dark, non-binding surface) by acoustic dispensing with nanoacoustic dispenser Echo (Labcyte) and pre-incubated 30 minutes at ambient temperature with 10 μL of ERAP 0.8 μg/mL or 1 μg/mL or vehicle. The reaction was then started with the addition of 10 μL of substrate at 10 μM. The final concentration of ERAP, substrate and DMSO was 0.5 μg/mL, 5 μM and 0.4% respectively. For the kinetic readout a Victor 3V (Perkin-Elmer) was used with excitation at 380 nm and emission at 450 nm. The fluorescence was measured each 3 minutes during one hour.
(§2) The Z and Z′ factors were calculated according to J.-H. Zhang, T. D. Y. Chung, K. R. Oldenburg, A Simple Statistical Parameter for Use in Evaluation and Validation of High Throughput Screening Assays, J. Biomol. Screen., 4 (1999) 67-73. Data analysis was performed using Xlfit® v 5.0 or GraphPad Prism® v 4.0.
(§3) Percentages of inhibition at different concentrations were obtained as described above and IC50s were carried out as 8-point dose response curves and reported as the average of at least three independent measurements. […] Data analysis was performed using Xlfit® v 5.0 or GraphPad Prism® v 4.0. Nonlinear curve fitting and statistical analysis was done using built-in functions.

ERAP1 = ERAP1 (Homo sapiens (Human), UniProt Q9NZ08); test: In vitro ERAP activity assay, ERAP1 with L-AMC substrate; format: biochemical; settings: L-AMC as substrate; read-out: IC50 on ERAP1 or ERAAP using L-AMC as substrate
Method: as §1, §2, §3

Sequence of ERAP1 (Q9NZ08 whole entry): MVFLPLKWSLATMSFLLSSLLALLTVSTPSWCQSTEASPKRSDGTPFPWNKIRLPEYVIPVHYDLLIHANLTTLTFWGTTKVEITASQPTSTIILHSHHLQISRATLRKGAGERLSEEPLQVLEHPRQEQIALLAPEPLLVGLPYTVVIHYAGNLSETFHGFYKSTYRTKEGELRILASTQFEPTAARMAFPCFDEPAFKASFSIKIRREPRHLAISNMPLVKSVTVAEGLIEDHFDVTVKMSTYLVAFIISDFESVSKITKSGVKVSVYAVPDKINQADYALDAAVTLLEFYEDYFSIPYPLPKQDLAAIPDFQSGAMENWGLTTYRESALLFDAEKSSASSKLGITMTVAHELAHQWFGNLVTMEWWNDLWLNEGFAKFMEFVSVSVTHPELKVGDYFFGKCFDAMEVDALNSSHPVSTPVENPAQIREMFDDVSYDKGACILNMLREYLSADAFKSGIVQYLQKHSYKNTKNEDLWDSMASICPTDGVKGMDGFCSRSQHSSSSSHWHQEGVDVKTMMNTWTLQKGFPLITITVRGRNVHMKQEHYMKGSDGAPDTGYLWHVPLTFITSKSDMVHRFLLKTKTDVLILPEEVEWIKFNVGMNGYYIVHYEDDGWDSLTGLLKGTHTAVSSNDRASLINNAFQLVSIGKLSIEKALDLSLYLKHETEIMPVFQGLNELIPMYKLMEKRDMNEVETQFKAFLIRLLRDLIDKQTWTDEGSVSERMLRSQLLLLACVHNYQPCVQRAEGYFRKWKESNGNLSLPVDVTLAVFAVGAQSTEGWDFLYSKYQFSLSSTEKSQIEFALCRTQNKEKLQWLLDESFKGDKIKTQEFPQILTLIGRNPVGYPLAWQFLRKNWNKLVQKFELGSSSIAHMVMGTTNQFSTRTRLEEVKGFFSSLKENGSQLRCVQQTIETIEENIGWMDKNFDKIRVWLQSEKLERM
Sequence of ERAP2 (Q6P179 whole entry): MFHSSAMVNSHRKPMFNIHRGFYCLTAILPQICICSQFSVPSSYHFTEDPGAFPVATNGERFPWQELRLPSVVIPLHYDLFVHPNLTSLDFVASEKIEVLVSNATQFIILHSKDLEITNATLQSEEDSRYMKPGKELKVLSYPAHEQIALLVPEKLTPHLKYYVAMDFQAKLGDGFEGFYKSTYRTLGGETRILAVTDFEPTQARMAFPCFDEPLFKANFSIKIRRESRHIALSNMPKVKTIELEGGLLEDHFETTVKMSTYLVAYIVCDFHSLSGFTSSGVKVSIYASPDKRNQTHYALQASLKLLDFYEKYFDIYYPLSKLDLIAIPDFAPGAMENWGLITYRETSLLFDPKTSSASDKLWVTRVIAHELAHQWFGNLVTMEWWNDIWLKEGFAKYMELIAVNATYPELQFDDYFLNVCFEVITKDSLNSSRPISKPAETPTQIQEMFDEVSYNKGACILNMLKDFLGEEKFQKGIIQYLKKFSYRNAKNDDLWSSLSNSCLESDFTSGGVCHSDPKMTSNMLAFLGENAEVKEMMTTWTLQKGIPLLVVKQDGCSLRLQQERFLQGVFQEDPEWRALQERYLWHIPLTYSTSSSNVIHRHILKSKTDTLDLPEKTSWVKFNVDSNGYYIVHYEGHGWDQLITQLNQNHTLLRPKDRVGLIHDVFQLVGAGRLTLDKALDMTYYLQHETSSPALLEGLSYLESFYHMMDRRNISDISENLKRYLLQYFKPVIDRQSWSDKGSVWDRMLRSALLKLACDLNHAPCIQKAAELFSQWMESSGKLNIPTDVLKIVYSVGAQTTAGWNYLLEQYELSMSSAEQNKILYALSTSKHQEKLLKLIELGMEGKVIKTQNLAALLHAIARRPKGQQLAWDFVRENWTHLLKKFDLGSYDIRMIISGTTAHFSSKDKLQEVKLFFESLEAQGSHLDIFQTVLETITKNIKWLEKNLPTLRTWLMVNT

Row | SMILES | inhibition at 2000 µM (ERAP2; at 2 mM, ERAP1 or 2 activity assay, read-out: inhibition (reference inhibitor)) | IC50 (ERAP2) | IC50 (ERAP1) | IC50 on ERAP2 using R-AMC as substrate (ERAP2)
1 | CC(C)C[C@H](NC(=O)[C@@H](O)[C@H](N)Cc1ccccc1)C(=O)O [Bestatin, reference compound] | 100% |  |  | 
2 | O=C(C[C@@H](Cc1c[nH]c2ccccc12)n1cc(CNS(=O)(=O)c2ccc(-c3ccccc3)s2)nn1)NO [Compound 1] |  | > 5 µM |  | 
3 | O=C(NO)[C@@H](Cc1c[nH]c2ccccc12)n1cc(CNS(=O)(=O)c2ccc(-c3ccccc3)s2)nn1 [Compound 2] |  | > 5 µM | > 5 µM | 
4 | CN(Cc1cn([C@@H](Cc2c[nH]c3ccccc23)C(=O)NO)nn1)S(=O)(=O)c1ccc(-c2ccccc2)s1 [Compound 3] |  |  | > 5 µM | + +
5 | O=C(NO)[C@H](Cc1c[nH]c2ccccc12)n1cc(CNS(=O)(=O)c2ccc(-c3ccccc3)s2)nn1 [Compound 4] |  | > 5 µM | > 5 µM | 
6 | O=C(NO)[C@H](Cc1c[nH]c2ccccc12)n1cc(CNS(=O)(=O)c2ccc(Br)s2)nn1 [Compound 5] |  |  | > 5 µM | + +
7 | O=C(C[C@@H](Cc1ccc2ccccc2c1)n1cc(CNS(=O)(=O)c2ccc(-c3ccccc3)s2)nn1)NO [Compound 6] |  |  | > 5 µM | + +
8 | O=C(C[C@H](Cc1ccc(O)cc1)n1cc(CNS(=O)(=O)c2ccc(-c3ccccc3)s2)nn1)NO [Compound 7] |  |  |  | + +
9 | O=C(NO)[C@@H](Cc1ccc(O)cc1)n1cc(CNS(=O)(=O)c2ccc(-c3ccccc3)s2)nn1 [Compound 8] |  |  | > 5 µM | + +
10 | CN(Cc1cn([C@H](CC(=O)NO)Cc2ccc(O)cc2)nn1)S(=O)(=O)c1ccc(-c2ccccc2)s1 [Compound 9] |  | > 5 µM |  | 
11 | O=C(NO)[C@H](Cc1ccc(O)cc1)n1cc(CNS(=O)(=O)c2ccc(-c3ccccc3)s2)nn1 [Compound 10] |  |  | > 5 µM | + +
12 | CNC(=O)c1ccc(-c2ccc(S(=O)(=O)NCc3cn([C@@H](Cc4ccc(O)cc4)C(=O)NO)nn3)s2)cc1 [Compound 11] |  |  |  | + +
13 | NCc1ccc(-c2ccc(S(=O)(=O)NCc3cn([C@@H](Cc4ccc(O)cc4)C(=O)NO)nn3)s2)cc1 [Compound 12] |  |  | > 5 µM | + +
14 | CN(Cc1cn([C@@H](Cc2ccc(O)cc2)C(=O)NO)nn1)S(=O)(=O)c1ccc(-c2ccccc2)s1 [Compound 13] |  |  | > 5 µM | + +
15 | O=C(NO)[C@H](Cc1ccc(O)cc1)n1cc(CNS(=O)(=O)c2ccc(Br)s2)nn1 [Compound 14] |  |  | > 5 µM | + +
16 | O=C(NO)[C@H](Cc1ccc(O)cc1)n1cc(CNS(=O)(=O)c2cccs2)nn1 [Compound 15] |  |  | > 5 µM | + +
17 | Cc1ccc(S(=O)(=O)NCc2cn([C@@H](Cc3ccc(O)cc3)C(=O)NO)nn2)s1 [Compound 16] |  |  |  | + +
18 | O=C(NO)[C@H](Cc1ccc(O)cc1)n1cc(CNS(=O)(=O)c2ccsc2)nn1 [Compound 17] |  |  | > 5 µM | + +
19 | O=C(NO)[C@H](Cc1ccc(O)cc1)n1cc(CNS(=O)(=O)c2sccc2Br)nn1 [Compound 18] |  |  |  | + +
20 | O=C(NO)[C@H](Cc1ccc(O)cc1)n1cc(CNS(=O)(=O)c2ccc(-c3ccccn3)s2)nn1 [Compound 19] |  |  | > 5 µM | + +
21 | O=C(NO)[C@@H](Cc1ccc(O)cc1)n1cc(CNS(=O)(=O)c2ccc(-c3ccccn3)s2)nn1 [Compound 20] |  |  | > 5 µM | + +
22 | O=C(NO)[C@H](Cc1ccc(OC(F)(F)F)cc1)n1cc(CNS(=O)(=O)c2ccc(-c3ccccn3)s2)nn1 [Compound 21] |  | < 0.5 µM |  | 
23 | O=C(NO)[C@H](Cc1ccc(OC(F)(F)F)cc1)n1cc(CNS(=O)(=O)c2ccc(-c3ccccc3)s2)nn1 [Compound 22] |  | < 0.5 µM |  | 
24 | COc1ccc(C[C@@H](C(=O)NO)n2cc(CNS(=O)(=O)c3ccc(-c4ccccc4)s3)nn2)cc1 [Compound 24] |  |  | > 5 µM | 
25 | CC(C)(C)Oc1ccc(C[C@@H](C(=O)NO)n2cc(CNS(=O)(=O)c3ccc(-c4ccccc4)s3)nn2)cc1 [Compound 26] |  | < 0.5 µM |  | 
26 | CC(C)(C)Oc1ccc(C[C@@H](C(=O)NO)n2cc(CNS(=O)(=O)c3ccc(-c4ccccn4)s3)nn2)cc1 [Compound 27] |  | < 0.5 µM |  | 
27 | CNC(=O)c1ccc(-c2ccc(S(=O)(=O)NCc3cn([C@@H](Cc4ccc(OC)cc4)C(=O)NO)nn3)s2)cc1 [Compound 28] |  | < 0.5 µM | < 5 µM | 

Row | SMILES | inhibition at 2000 µM (ERAP2; at 2 mM, ERAP1 or 2 activity assay, read-out: inhibition (reference inhibitor)) | IC50 (ERAP2) | IC50 (ERAP1) | IC50 on ERAP2 using R-AMC as substrate (ERAP2)
28 | O=C(NO)[C@H](Cc1ccc(O)cc1)n1cc(CNS(=O)(=O)c2ccc(-c3cccnc3)s2)nn1 [Compound 29] |  | < 0.5 µM |  | 
29 | O=C(C[C@@H](Cc1c[nH]c2ccccc12)n1nncc1CNS(=O)(=O)c1ccc(-c2ccccc2)s1)NO [Compound 30] |  | > 5 µM |  | 
30 | O=C(C[C@H](Cc1ccc(O)cc1)n1nncc1CNS(=O)(=O)c1ccc(-c2ccccc2)s1)NO [Compound 31] |  |  |  | + +
31 | CN(Cc1cnnn1[C@H](CC(=O)NO)Cc1ccc(O)cc1)S(=O)(=O)c1ccc(-c2ccccc2)s1 [Compound 32] |  |  |  | + +
32 | O=C(C[C@H](Cc1ccc(O)cc1)n1nncc1CNS(=O)(=O)c1ccc(-c2ccccn2)s1)NO [Compound 33] |  |  | > 5 µM | 
33 | O=C(NO)[C@H](Cc1ccc(O)cc1)n1nncc1CNS(=O)(=O)c1ccc(-c2ccccc2)s1 [Compound 34] |  |  |  | + +
34 | O=C(NO)[C@@H](Cc1ccc(O)cc1)n1nncc1CNS(=O)(=O)c1ccc(-c2ccccc2)s1 [Compound 35] |  | > 5 µM |  | 
35 | COc1ccc(C[C@@H](C(=O)NO)n2cc(CNS(=O)(=O)c3ccc(-c4ccncc4)s3)nn2)cc1 [Compound 36] |  | < 0.5 µM | > 5 µM | 
36 | O=C(NO)[C@H](Cc1ccc2c(c1)OCO2)n1cc(CNS(=O)(=O)c2ccc(-c3ccccn3)s2)nn1 [Compound 37] |  | < 0.5 µM | > 5 µM | 
37 | COc1ccc(C[C@@H](C(=O)NO)n2cc(CNS(=O)(=O)c3ccc(-c4cccnc4)s3)nn2)cc1 [Compound 38] |  | < 0.5 µM |  | 
38 | O=C(NO)[C@H](Cc1ccc(O)c(Cl)c1)n1cc(CNS(=O)(=O)c2ccc(-c3ccccn3)s2)nn1 [Compound 39] |  | < 0.5 µM | < 5 µM | 
39 | O=C(NO)[C@H](Cc1ccc(O)c(Cl)c1)n1cc(CNS(=O)(=O)c2ccc(-c3ccccc3)s2)nn1 [Compound 40] |  | < 0.5 µM | > 5 µM | 
40 | COc1ccc(C[C@@H](C(=O)NO)n2cc(CNS(=O)(=O)c3ccc(-c4ccccn4)s3)nn2)cc1OC [Compound 41] |  | < 0.5 µM | < 5 µM | 
41 | COc1ccc(C[C@@H](C(=O)NO)n2cc(CNS(=O)(=O)c3ccc(-c4ccccc4)s3)nn2)cc1OC [Compound 42] |  | < 0.5 µM | < 0.5 µM | 
42 | CNC(=O)c1cccc(-c2ccc(S(=O)(=O)NCc3cn([C@@H](Cc4ccc(OC)cc4)C(=O)NO)nn3)s2)c1 [Compound 43] |  | < 0.5 µM | > 5 µM | 
43 | O=C(NO)[C@H](Cc1ccc(O)c(F)c1)n1cc(CNS(=O)(=O)c2ccc(-c3ccccn3)s2)nn1 [Compound 44] |  | < 0.5 µM | > 5 µM | 
44 | O=C(NO)[C@H](Cc1ccc(O)c(F)c1)n1cc(CNS(=O)(=O)c2ccc(-c3ccccc3)s2)nn1 [Compound 45] |  | < 0.5 µM | > 5 µM | 
45 | COc1ccc(C[C@@H](C(=O)NO)n2cc(CN(C)S(=O)(=O)c3ccc(-c4ccccn4)s3)nn2)cc1 [Compound 46] |  | < 0.5 µM |  | 
46 | COc1ccc(C[C@@H](C(=O)NO)n2cc([C@H](C)NS(=O)(=O)c3ccc(-c4ccccn4)s3)nn2)cc1 [Compound 47] |  | < 0.5 µM |  | 
47 | COc1ccc(C[C@@H](C(=O)NO)n2cc([C@@H](C)NS(=O)(=O)c3ccc(-c4ccccn4)s3)nn2)cc1 [Compound 48] |  | < 5 µM |  | 
48 | COc1cccc(C[C@@H](C(=O)NO)n2cc(CNS(=O)(=O)c3ccc(-c4ccccn4)s3)nn2)c1 [Compound 49] |  | < 0.5 µM | > 5 µM | 
49 | COc1ccccc1C[C@@H](C(=O)NO)n1cc(CNS(=O)(=O)c2ccc(-c3ccccn3)s2)nn1 [Compound 50] |  | > 5 µM |  | 
50 | COCCOc1ccc(C[C@@H](C(=O)NO)n2cc(CNS(=O)(=O)c3ccc(-c4ccccn4)s3)nn2)cc1 [Compound 51] |  | < 0.5 µM |  | 
51 | COc1ccc(C[C@@H](C(=O)NO)n2cc(CNS(=O)(=O)c3ccc(-c4ccccn4)s3)nn2)cc1F [Compound 52] |  | < 0.5 µM | > 5 µM | 
52 | COc1ccc(C[C@@H](C(=O)NO)n2cc(CNS(=O)(=O)c3ccc(-c4ccccn4)s3)nn2)cc1Cl [Compound 53] |  | < 0.5 µM | < 5 µM | 
53 | C#Cc1ccc(C[C@@H](C(=O)NO)n2cc(CNS(=O)(=O)c3ccc(-c4ccccc4)s3)nn2)cc1 [Compound 54] |  | < 0.5 µM | < 5 µM | 
